The values that follow are results of earlier work, collected in paper PMC7455853 (European Journal of Medicinal Chemistry, 2020).

Counter-ions that a name gives are not always drawn.

Series [1] has as its system tubulin (colchicine binding). Conditions: at 5 μM.
Series [2] concerns HIF-1. The following applies: read-out: HIF-1 inhibitory activity IC50; HeLa cells.
Series [3] deals with NF–Y binding to the ICB2. Conditions: EMSA. On the technique in general: In EMSA bound probe runs differently from free probe, usually more slowly.
Series [4] deals with ICB2 site.
For series [5], the system named is SrtA.
For series [6], the system named is AURKA.
Series [7] concerns EGFR.

Consider `COc1ccc(/C=C\c2cc(OC)c(OC)c(OC)c2)cc1O` [CA-4, combretastatin A-4], for which the “inhibition of colchicine binding” value in series [1] was 98%.

As usually defined, the IC50 is the concentration needed to halve the response being measured. Regarding `O=C(Cc1ccc(O)cc1)n1cc(-c2ccc(O)cc2)c(-c2ccc(O)cc2)c1` [neolamellarin A], the concentration for half-maximal inhibition (IC50) in series [2] is 10.8 µM.

With `COc1ccc(-c2nc3ccc(C(=O)Nc4cn(C)c(C(=O)Nc5cc(C(=O)NCCCN(C)C)n(CCCN)c5)n4)cc3[nH]2)cc1` [compound 19a], in series [3], the “doses giving dose-dependent inhibition of NF–Y binding to the ICB2” value is no less than 3 µM. Further, the DNA binding affinity in series [4] is 0.5 µM.

On to `COc1ccc2cc3[n+](cc2c1OC)CCc1cc2c(cc1-3)OCO2` [berberine hydrochloride], for which, in series [5], the IC50 was 120 µM.

`Brc1cccc(Nc2ncnc3[nH]ccc23)c1` [compound 8]: the figures for the half-inhibitory concentration (IC50) in series [6] and in series [7] were 1.99 µM and 0.00376 µM, respectively.
